Assay results reported in paper PMC5148701 (Journal of medicinal chemistry, 2016).
Read-outs that look alike come from different tables or passages of the source.

How the values were obtained:
[1] = target: hD2L receptors (Homo sapiens, UniProt P14416); experiment: D2R Gi/o-mediated cAMP inhibition assay; format: cell-based; conditions: for activity in Gi/o signaling (in words) / decrease of potency in Gi/o pathway compared to compound 1: cAMP inhibition assay; for Emax: HEK-293T
[2] = target: D2L receptors (Homo sapiens, UniProt P14416); experiment: D2R β-arrestin-2 recruitment Tango assay; format: cell-based; conditions: for Emax: HTLA, read-out: β-arrestin Emax (%); for EC50: β-arrestin EC50 (nM), HTLA cells
[3] = read-out: cAMP Emax (%), HEK293T cells, GloSensor-22F, normalized to maximum cAMP inhibition by quinpirole (100%)

Chain of D2L receptors (P14416 whole entry): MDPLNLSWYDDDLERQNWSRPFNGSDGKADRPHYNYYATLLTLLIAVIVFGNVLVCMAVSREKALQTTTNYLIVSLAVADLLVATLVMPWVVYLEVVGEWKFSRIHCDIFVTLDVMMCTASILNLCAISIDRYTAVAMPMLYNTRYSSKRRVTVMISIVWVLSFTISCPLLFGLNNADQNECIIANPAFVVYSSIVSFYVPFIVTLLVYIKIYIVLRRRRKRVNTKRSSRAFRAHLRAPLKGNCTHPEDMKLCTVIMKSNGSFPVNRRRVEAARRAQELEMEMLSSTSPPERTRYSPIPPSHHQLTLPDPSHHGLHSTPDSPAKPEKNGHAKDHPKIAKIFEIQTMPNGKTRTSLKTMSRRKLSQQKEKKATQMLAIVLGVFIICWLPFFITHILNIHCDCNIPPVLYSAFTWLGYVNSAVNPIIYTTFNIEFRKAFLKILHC
Chain of hD2L receptors (P14416 whole entry): as above

SMILES	Emax [2] [%]	EC50 ([2]; Tango assay) [nM]	Emax [1, 3] [%]	Emax ([1]; read-out: cAMP Emax (%)) [%]	further results
Cc1nc2cc(OCCCN3CCN(c4cccc(Cl)c4Cl)CC3)ccc2s1 [Compound 2, 5-(3-(4-(2,3-Dichlorophenyl)piperazin-1-yl)propoxy)-2-methylbenzo[d]thiazole]	–	–	–	–	D2R agonist profile in β-arrestin and Gi/o pathways ([1]; compared with β-arrestin recruitment Tango assay): balanced D2R agonist
CCc1nc2cc(OCCCCN3CCN(c4cccc5c4OCCN5)CC3)ccc2s1 [Compound 50, 8-(4-(4-((2-Ethylbenzo[d]thiazol-5-yl)oxy)butyl)piperazin-1-yl)-3,4-dihydro-2H-benzo[b][1,4]oxazine]	33	6.4	–	–	–
Cc1nc2cc(OCCCCN3CCN(c4cccc(-c5ccccc5)c4C)CC3)ccc2s1 [Compound 44, 2-Methyl-5-(4-(4-(2-methyl-[1,1'-biphenyl]-3-yl)piperazin-1-yl)butoxy)benzo[d]thiazole]	–	–	–	–	activity in Gi/o signaling (in words) [1]: completely inactive; activity in β-arrestin recruitment (in words) ([2]; Tango assay): completely inactive
CC(C)c1nc2cc(OCCCCN3CCC(c4cccc(Cl)c4Cl)CC3)ccc2s1 [Compound 47, 5-(4-(4-(2,3-Dichlorophenyl)piperidin-1-yl)butoxy)-2-isopropylbenzo[d]thiazole]	< 20	–	33	–	–
CCc1nc2cc(OCCCCN3CCN(c4cccc5ccc(C)nc45)CC3)ccc2s1 [Compound 48, 2-Ethyl-5-(4-(4-(2-methylquinolin-8-yl)piperazin-1-yl)butoxy)benzo[d]thiazole]	< 20	–	33	–	–
COc1ccccc1N1CCN(CCCCOc2ccc3sc(C)nc3c2)CC1 [Compound 32, 5-(4-(4-(2-Methoxyphenyl)piperazin-1-yl)butoxy)-2-methylbenzo[d]thiazole]	25	8.5	–	61	decrease of potency in Gi/o pathway compared to compound 1 [1]: around 5 fold
Cc1nc2cc(OCCCCN3CCN(c4cccc5c4OCCN5)CC3)ccc2s1 [Compound 39, 8-(4-(4-((2-Methylbenzo[d]thiazol-5-yl)oxy)butyl)piperazin-1-yl)-3,4-dihydro-2H-benzo[b][1,4]oxazine]	< 20	–	–	29	activity in β-arrestin recruitment (in words) ([2]; Tango assay): did not recruit β-arrestin at all
O=c1[nH]c2cc(OCCCCN3CCN(c4cccc(Cl)c4Cl)CC3)ccc2s1 [Compound 7, 5-(4-(4-(2,3-Dichlorophenyl)piperazin-1-yl)butoxy)benzo[d]thiazol-2(3H)-one]	59	2.6	–	67	–
Cc1nc2cc(OCCCCN3CCN(c4cccc(Cl)c4Cl)[C@@H](C)C3)ccc2s1 [Compound 34, (S)-5-(4-(4-(2,3-Dichlorophenyl)-3-methylpiperazin-1-yl)butoxy)-2-methylbenzo[d]thiazole]	–	–	–	–	activity in Gi/o signaling (in words) [1]: no appreciable activity; activity in β-arrestin recruitment (in words) ([2]; Tango assay): no appreciable activity
CC(C)c1nc2cc(OCCCCN3CCN(c4cccc5c4OCCN5)CC3)ccc2s1 [Compound 51, 8-(4-(4-((2-Isopropylbenzo[d]thiazol-5-yl)oxy)butyl)piperazin-1-yl)-3,4-dihydro-2H-benzo[b][1,4]oxazine]	–	–	48	–	–
CCc1nc2cc(OCCCCN3CCN(c4cccc(Cl)c4Cl)CC3)ccc2s1 [Compound 18, 5-(4-(4-(2,3-Dichlorophenyl)piperazin-1-yl)butoxy)-2-ethylbenzo[d]thiazole]	< 20	–	43	–	–
Cc1nc2ccc(OCCCCN3CCN(c4cccc(Cl)c4Cl)CC3)cc2s1 [Compound 3, 6-(4-(4-(2,3-Dichlorophenyl)piperazin-1-yl)butoxy)-2-methylbenzo[d]thiazole]	22	76	–	42	decrease of potency in Gi/o pathway compared to compound 1 [1]: 2 fold; decrease of potency in β-arrestin recruitment compared to compound 1 ([2]; Tango assay): 5 fold
Cc1nc2cc(OCCCCN3CCN(c4cccc5c4OCCO5)CC3)ccc2s1 [Compound 40, 5-(4-(4-(2,3-Dihydrobenzo[b][1,4]dioxin-5-yl)piperazin-1-yl)butoxy)-2-methylbenzo[d]thiazole]	–	3.6	–	50	–
Cc1nc2cc(OCCCCN3CCC(c4cccc(Cl)c4Cl)CC3)ccc2s1 [Compound 30, 5-(4-(4-(2,3-Dichlorophenyl)piperidin-1-yl)butoxy)-2-methylbenzo[d]thiazole]	31	49	–	66	–
Cc1nc2cc(OCCCCN3CCCN(c4cccc(Cl)c4Cl)CC3)ccc2s1 [Compound 31, 5-(4-(4-(2,3-Dichlorophenyl)-1,4-diazepan-1-yl)butoxy)-2-methylbenzo[d]thiazole]	< 20	–	–	22	activity in β-arrestin recruitment (in words) ([2]; Tango assay): inactive
Cc1ccc2cccc(N3CCN(CCCCOc4ccc5sc(C)nc5c4)CC3)c2n1 [Compound 36, 2-Methyl-5-(4-(4-(2-methylquinolin-8-yl)piperazin-1-yl)butoxy)benzo[d]thiazole]	< 20	–	–	25	–
CNc1nc2cc(OCCCCN3CCN(c4cccc5c4OCCO5)CC3)ccc2s1 [Compound 57, 5-(4-(4-(2,3-Dihydrobenzo[b][1,4]dioxin-5-yl)piperazin-1-yl)butoxy)-N-methylbenzo[d]thiazol-2-amine]	–	–	–	–	activity in Gi/o signaling (in words) [1]: inactive; activity in β-arrestin recruitment (in words) ([2]; Tango assay): inactive
Cc1nc2ccc(OCCCCN3CCC(c4cccc(Cl)c4Cl)CC3)cc2s1 [Compound 58, 6-(4-(4-(2,3-Dichlorophenyl)piperidin-1-yl)butoxy)-2-methylbenzo[d]thiazole]	24	460	56	–	–
Cc1nc2cc(OCCCCN3CCN(c4cccc5[nH]c(=O)oc45)CC3)ccc2s1 [Compound 45, 7-(4-(4-((2-Methylbenzo[d]thiazol-5-yl)oxy)butyl)piperazin-1-yl)benzo[d]oxazol-2(3H)-one]	88	0.36	–	90	–
Clc1nc2cc(OCCCCN3CCN(c4cccc(Cl)c4Cl)CC3)ccc2s1 [Compound 6, 2-Chloro-5-(4-(4-(2,3-dichlorophenyl)piperazin-1-yl)butoxy)benzo[d]thiazole]	40	48	50	–	–
FC(F)(F)c1nc2cc(OCCCCN3CCN(c4cccc(Cl)c4Cl)CC3)ccc2s1 [Compound 11, 5-(4-(4-(2,3-Dichlorophenyl)piperazin-1-yl)butoxy)-2-(trifluoromethyl)benzo[d]thiazole]	40	–	–	–	–
CNc1nc2cc(OCCCCN3CCN(c4cccc5c4OCCN5)CC3)ccc2s1 [Compound 56, 5-(4-(4-(3,4-Dihydro-2H-benzo[b][1,4]oxazin-8-yl)piperazin-1-yl)butoxy)-N-methylbenzo[d]thiazol-2-amine]	29	6.5	49	–	–
CC(C)c1nc2cc(OCCCCN3CCN(c4cccc(Cl)c4Cl)CC3)ccc2s1 [Compound 19, 5-(4-(4-(2,3-Dichlorophenyl)piperazin-1-yl)butoxy)-2-isopropylbenzo[d]thiazole]	< 20	–	33	–	–
CCc1nc2cc(OCCCCN3CCN(c4cccc5c4OCCO5)CC3)ccc2s1 [Compound 52, 5-(4-(4-(2,3-Dihydrobenzo[b][1,4]dioxin-5-yl)piperazin-1-yl)butoxy)-2-ethylbenzo[d]thiazole]	–	–	–	–	activity in Gi/o signaling (in words) [1]: inactive; activity in β-arrestin recruitment (in words) ([2]; Tango assay): inactive
CN(C)c1nc2cc(OCCCCN3CCN(c4cccc(Cl)c4Cl)CC3)ccc2s1 [Compound 25, 5-(4-(4-(2,3-Dichlorophenyl)piperazin-1-yl)butoxy)-N,N-dimethylbenzo[d]thiazol-2-amine]	–	–	–	–	activity in Gi/o signaling (in words) [1]: did not show any activity; activity in β-arrestin recruitment (in words) ([2]; Tango assay): did not show any activity
